# Reference: patent publication US5516790A, “Synthesis and application of alkyl-substituted dibenzofurans as antitumorigenic agents” (Texas A&M University System Technology Licensing Office, priority 1994, dated 1996)
# What was measured:
# [1] = system: progesterone receptor (PR); assay: Uterine progesterone receptor levels, hydroxyapatite assay (Example 8); type: in vivo, female Sprague-Dawley rats
# Method: (§1) The animals were terminated by cervical dislocation. Livers were perfused with ice-cold TEDG buffer (10 mM Tris-HCl, 1.5 mM EDTA-4Na, 1 mM dithiothreitol, 10% glycerol (v/v), pH 7.4). Following perfusion in situ, livers were removed, weighed, and homogenized in ice-cold TEDG buffer. Uteri were also removed, weighed, and homogenized in ice-cold buffer. The homogenates were then centrifuged at 800×g ([…]) for 15 minutes and the nuclear pellets were stored at -80° C. The supernatants were further centrifuged at 180,000× g for 1.5 hours. The cytosolic supernatant was also stored at -80° C. Estrogen and progesterone receptor levels were determined within 7 days.
# (§2) Estrogen (ER) and progesterone (PR) receptor levels were determined by the hydroxyapatite assay as described by Clark et al. (J. Steroid Biochem. 16:323-328, 1982) and incorporated herein by reference. […] Following the incubations, samples were counted and specific binding was calculated by subtraction of nonspecific from total binding. Assuming one steroid molecule binds to one estrogen/progesterone receptor, the number of moles of receptor can be calculated given the specific activity of the radioligand. The data presented in Tables 1 through 6 are means ± SD using at least four animals per treatment group. Significant differences were determined by analysis of variance.
# estrogen receptor (ER) = assay: Uterine estrogen receptor levels, hydroxyapatite assay (Example 8); type: in vivo, female Sprague-Dawley rats
# Method: A second group of animals was similarly treated with corn oil, TCDD, MCDF, or TCDD plus MCDF, all administered in corn oil at 10 ml/kg and terminated 72 hours later.
# as §1, §2
# female rat uterus = assay: Antiestrogenic effect on uterine wet weight, immature female Sprague-Dawley rats (Example 8); type: in vivo
# [2] = 150 μmol/kg + E-2 (2 × 10 μg/rat), run B
# [3] = compound alone, 150 μmol/kg (17β-estradiol: 2 × 10 μg/rat), run B
# [4] = dose-response, 10 μmol/kg + 17β-estradiol (2 × 10 μg/rat)
# [5] = dose-response, 25 μmol/kg + 17β-estradiol (2 × 10 μg/rat)
# [6] = dose-response, 50 μmol/kg + 17β-estradiol (2 × 10 μg/rat)
# [7] = dose-response, 150 μmol/kg + 17β-estradiol (2 × 10 μg/rat)
# [8] = Table 2: 50 μmol/kg + E-2 (2 × 10 μg/rat)
# [9] = Table 2: compound alone, 50 μmol/kg (17β-estradiol: 2 × 10 μg/rat)
# [10] = dose-response, 2 μmol/kg + 17β-estradiol (2 × 10 μg/rat)
compound,measurement,setting,value
"CC(C)(C)c1cc(Cl)cc2c1oc1cc(Cl)cc(Cl)c12 [6-t-Butyl-1,3,8-triCDF]","Progesterone Receptor Levels, Cytosolic",[1]; [2],1844 ± 77 fmol/mg protein
same,"Progesterone Receptor Levels, Nuclear",[1]; [2],270 ± 19 fmol/mg protein
same,"Progesterone Receptor Levels, Cytosolic",[1]; [3],1109 ± 83 fmol/mg protein
same,"Progesterone Receptor Levels, Nuclear",[1]; [3],211 ± 15 fmol/mg protein
same,"Estrogen Receptor Levels, Cytosolic",estrogen receptor (ER); [2],108.6 ± 11.4 fmol/mg protein
same,"Estrogen Receptor Levels, Nuclear",estrogen receptor (ER); [2],41.7 ± 2.1 fmol/mg protein
same,"Estrogen Receptor Levels, Cytosolic",estrogen receptor (ER); [3],85.5 ± 4.3 fmol/mg protein
same,"Estrogen Receptor Levels, Nuclear",estrogen receptor (ER); [3],41.4 ± 2.1 fmol/mg protein
same,Uterine Wet Weight,female rat uterus; [2],0.247 ± 0.004 % body wt
same,Uterine Wet Weight,female rat uterus; [3],0.122 ± 0.013 % body wt
"CCCc1cc(Cl)cc2c1oc1cc(Cl)cc(Cl)c12 [6-Propyl-1,3,8-Trichlorodibenzofuran]","Progesterone Receptor Levels, Cytosolic",[1]; [4],1501 ± 105 fmol/mg protein
same,"Progesterone Receptor Levels, Nuclear",[1]; [4],850 ± 68 fmol/mg protein
same,"Progesterone Receptor Levels, Cytosolic",[1]; [5],1055 ± 74 fmol/mg protein
same,"Progesterone Receptor Levels, Nuclear",[1]; [5],515 ± 41 fmol/mg protein
same,"Progesterone Receptor Levels, Cytosolic",[1]; [6],1105 ± 77 fmol/mg protein
same,"Progesterone Receptor Levels, Nuclear",[1]; [6],510 ± 41 fmol/mg protein
same,"Progesterone Receptor Levels, Cytosolic",[1]; [7],1190 ± 83 fmol/mg protein
same,"Progesterone Receptor Levels, Nuclear",[1]; [7],660 ± 53 fmol/mg protein
same,"Estrogen Receptor Levels, Cytosolic",estrogen receptor (ER); [4],105.5 ± 5.3 fmol/mg protein
same,"Estrogen Receptor Levels, Nuclear",estrogen receptor (ER); [4],81.5 ± 4.9 fmol/mg protein
same,"Estrogen Receptor Levels, Cytosolic",estrogen receptor (ER); [5],87.8 ± 4.4 fmol/mg protein
same,"Estrogen Receptor Levels, Nuclear",estrogen receptor (ER); [5],56.6 ± 2.8 fmol/mg protein
same,"Estrogen Receptor Levels, Cytosolic",estrogen receptor (ER); [6],66.7 ± 3.3 fmol/mg protein
same,"Estrogen Receptor Levels, Nuclear",estrogen receptor (ER); [6],41.1 ± 2.1 fmol/mg protein
same,"Estrogen Receptor Levels, Cytosolic",estrogen receptor (ER); [7],88.2 ± 4.4 fmol/mg protein
same,"Estrogen Receptor Levels, Nuclear",estrogen receptor (ER); [7],35.6 ± 1.8 fmol/mg protein
same,Uterine Wet Weight,female rat uterus; [4],0.192 ± 0.013 % body wt
same,Uterine Wet Weight,female rat uterus; [5],0.170 ± 0.010 % body wt
same,Uterine Wet Weight,female rat uterus; [6],0.202 ± 0.014 % body wt
same,Uterine Wet Weight,female rat uterus; [7],0.216 ± 0.012 % body wt
"Cc1cc(Cl)cc2c1oc1c(Cl)c(Cl)c(Cl)cc12 [6-Methyl-2,3,4,8-tetraCDF, 6-Methyl-2,3,4,8-tetrachlorodibenzofuran]","Progesterone Receptor Levels, Cytosolic",[1]; [8],795 ± 52 fmol/mg protein
same,"Progesterone Receptor Levels, Nuclear",[1]; [8],1081 ± 131 fmol/mg protein
same,"Progesterone Receptor Levels, Cytosolic",[1]; [9],625 ± 71 fmol/mg protein
same,"Progesterone Receptor Levels, Nuclear",[1]; [9],457 ± 58 fmol/mg protein
same,"ED40-60 for Inhibition, PRc",[1]; cotreatment with 17β-estradiol,2 µmol/kg
same,"ED40-60 for Inhibition, PRn",[1]; cotreatment with 17β-estradiol,10 µmol/kg
same,"Progesterone Receptor Levels, Cytosolic",[1]; [10],1220 ± 85 fmol/mg protein
same,"Progesterone Receptor Levels, Nuclear",[1]; [10],925 ± 74 fmol/mg protein
same,"Progesterone Receptor Levels, Cytosolic",[1]; [4],970 ± 68 fmol/mg protein
same,"Progesterone Receptor Levels, Nuclear",[1]; [4],765 ± 61 fmol/mg protein
same,"Progesterone Receptor Levels, Cytosolic",[1]; [5],1000 ± 63 fmol/mg protein
same,"Progesterone Receptor Levels, Nuclear",[1]; [5],645 ± 52 fmol/mg protein
same,"Progesterone Receptor Levels, Cytosolic",[1]; [6],885 ± 53 fmol/mg protein
same,"Progesterone Receptor Levels, Nuclear",[1]; [6],450 ± 36 fmol/mg protein
same,"Estrogen Receptor Levels, Cytosolic",estrogen receptor (ER); [8],176.3 ± 20.3 fmol/mg protein
same,"Estrogen Receptor Levels, Nuclear",estrogen receptor (ER); [8],69.9 ± 9.4 fmol/mg protein
same,"Estrogen Receptor Levels, Cytosolic",estrogen receptor (ER); [9],96.2 ± 11.2 fmol/mg protein
same,"Estrogen Receptor Levels, Nuclear",estrogen receptor (ER); [9],31.3 ± 5.6 fmol/mg protein
same,"ED40-60 for Inhibition, ERc",estrogen receptor (ER); cotreatment with 17β-estradiol,2 µmol/kg
same,"ED40-60 for Inhibition, ERn",estrogen receptor (ER); cotreatment with 17β-estradiol,2 µmol/kg
same,"Estrogen Receptor Levels, Cytosolic",estrogen receptor (ER); [10],86.7 ± 4.3 fmol/mg protein
same,"Estrogen Receptor Levels, Nuclear",estrogen receptor (ER); [10],64.7 ± 3.9 fmol/mg protein
same,"Estrogen Receptor Levels, Cytosolic",estrogen receptor (ER); [4],83.9 ± 4.2 fmol/mg protein
same,"Estrogen Receptor Levels, Nuclear",estrogen receptor (ER); [4],53.8 ± 3.2 fmol/mg protein
same,"Estrogen Receptor Levels, Cytosolic",estrogen receptor (ER); [5],75.1 ± 3.8 fmol/mg protein
same,"Estrogen Receptor Levels, Nuclear",estrogen receptor (ER); [5],49.3 ± 3.0 fmol/mg protein
same,"Estrogen Receptor Levels, Cytosolic",estrogen receptor (ER); [6],71.0 ± 3.6 fmol/mg protein
same,"Estrogen Receptor Levels, Nuclear",estrogen receptor (ER); [6],40.0 ± 2.4 fmol/mg protein
same,Uterine Wet Weight,female rat uterus; [8],0.163 ± 0.019 % body wt
same,Uterine Wet Weight,female rat uterus; [9],0.109 ± 0.020 % body wt
same,Uterine Wet Weight,female rat uterus; [10],0.268 ± 0.044 % body wt
same,Uterine Wet Weight,female rat uterus; [4],0.221 ± 0.020 % body wt
same,Uterine Wet Weight,female rat uterus; [5],0.191 ± 0.006 % body wt
same,Uterine Wet Weight,female rat uterus; [6],0.158 ± 0.004 % body wt
